{
  "source": "patent EP4349409A1",
  "about": "“COMPOUNDS FOR THE MANAGEMENT OF CELL STEMNESS AND INVASION IN CANCER AND RELATED DISEASES” (Instituto Biomar S.A., priority 2022, dated 2024)",
  "key": {"[1]": {"tested_on": "p73 transcripts originated from the P1 promoter (TAp73, ΔEx2p73, ΔEx2/3p73)", "test": "qRT-PCR of p73 transcripts from the P1 promoter in U373 cells", "format": "cell-based, human", "conditions": "U373, same conditions as screening, 18S control", "protocol": "Expression levels of TAp73 (Figure 2C), ΔEx2p73 (Figure 2D) and ΔEx2/3p73 (Figure 2E) were determined by qRT-qPCR using 18S ribosomal RNA as housekeeping control, and all the expression values were normalized to TAp73 expression in non-treated cells (NT). […] The amino-truncated isoforms that are tumor-specific are vigorously expressed in advanced stages across a variety of highly aggressive human cancers (Knoll et al., 2011; Steder et al., 2013; George et al., 2015; Meier et al., 2016) and promote tumor initiation (Tannapfel et al., 2008) and cancer progression (Engelmann et al., 2015). Moreover, there is a somatic genomic rearrangement of TP73 that generates an oncogenic Ex2/3p73 in small cell lung cancer (George et al., 2015). BMT9 represses the activity of the P1-TP73 promoter, therefore it would be expected to downregulate the expression of any of the isoforms generated from this promoter in a given cell."}, "[2]": {"tested_on": "normal human fetal neural stem cells-NSC", "test": "Long term MTT viability, normal neural stem cells", "format": "cell-based", "conditions": "CD133-positive NSC, 1.125-4.5 µM", "protocol": "(§1) Previous studies have reported that the molecular signature of the GNSC G144 cell line corresponds to a 'proneural' subtype of GB with NSC features (Pollard et al., 2009; Danovi et al., 2013). Thus, to test BMT9 specificity we compared cellular viability when treating CD133-positive cells (either GNSCs or normal human fetal neural stem cells-NSC) versus CD133-negative human embryonic fibroblast (HEFs) (Figure 8A). MTT-based cytotoxicity assay (Figure 7B-D) were performed as previously described."}, "[3]": {"tested_on": "transcript levels originated from the P1-TP73 promoter (TAp73, ΔEx2p73 and ΔEx2/3p73)", "test": "qRT-PCR of P1-TP73 promoter transcripts in G144 cells", "format": "cell-based, human", "conditions": "G144, 72 h, dose dependent", "description": "As before, all isoforms were reduced by treatment, with TAp73 and ΔEx2/3p73 being the predominant isoforms, while ΔN'p73 was barely detected (Figure 4A). Ribosomal RNA 18S was used as housekeeping control, and all expression levels were normalized to the TAp73 NT value."}, "G144 cells": {"tested_on": "G144 cells", "test": "Proliferation rate analysis by p-His-3 immunostaining in G144 cells", "format": "cell-based, human", "conditions": "G144, 4.5 µM, 72 h (data not shown)", "description": "It is noteworthy that G144 cells proliferate very slowly and, at maintenance culture conditions, about 90% of the cells are in G1 phase of the cell cycle (data not shown)."}, "P1-TP73 promoter": {"tested_on": "P1-TP73 promoter", "test": "P1-p73-Fluc-DsRed reporter screening of natural compounds in U373 cells", "format": "cell-based, human", "conditions": "U373, 8 µg/ml, 48 h after treatment", "protocol": "The conventional GB cell line U373 was used to perform a low-throughput chemical screen to identify P1-TP73-promoter regulators from a panel of 51 natural compounds with novel chemical structures (BMT-1 to BMT-51). Cells were seeded on black microplates and 24 h later they were transfected with 1 µg of P1-p73-Fluc-DsRed plasmid using Lipofectamine 3000™ reagent (ThermoFisher) following the manufacturer's instructions. Six hours later, transfected cells were treated either with 8 µg/ml of any of the tested compounds or with the drugs used as first line glioblastoma treatment: the methylating agent temozolomide (TMZ) and the chloroethyl-derivative of nitrosourea carmustine (BCNU), or equivalent volumes of DMSO. […] The compound BMT18 was also found to have autofluorescence."}, "G144": {"tested_on": "G144", "test": "MTT-based cytotoxicity assay, G144", "format": "cell-based, human", "conditions": "for IC50: G144, MTT, 72 h", "protocol": "A dose-response analysis of BMT9 (concentrations ranging from 4.5 µM-18 µM), BCNU (from 150 µM-500 µM) and TMZ (350 µM-700 µM) was performed in two conventional glioblastoma cell lines (T98G, U373) and the GNS cell line G144 by MTT-based cytotoxicity assays (Figure 5A-D). Cells were seeded on p96-well plates and treated with the different compounds for 72 h. Then, the MTT reagent (3-(4,5-Dimethyl-2-thiazolyl)-2,5-diphenyl-2H-tetrazolium bromide diluted in PBS to a concentration of 1mg/ml), was added to each well to a final concentration of 0.33mg/ml, and incubated for 3 h at 37°C. After that, the media was removed, and formazan crystals were solubilized with DMSO. Absorbance was measured at 560 nm using a \"Synergy HT\" plate reader (Biotek). In the graphs, the Y axis represents the percentage of cell viability relative to non-treated cells. The IC50, when reached are marked by a rectangle. DMSO treatment had no effect on cell viability.\nas §1\n(§2) While the first line therapy of gliomas has proven its effectiveness and improved clinical outcomes, acquired chemoresistance to alkylating agents has been identified as a major cause of treatment failure (Sarkaria et al., 2008). In a murine model of GB, long-term treatment with subtoxic TMZ doses enriched the side population of cancer stem cells, increasing the tumor aggressiveness (Bleau et al., 2009). Thus, we generated TMZ-resistant G144-clones that were selected upon treatment with TMZ either at 500 µM or 700 µM for several months (R500 and R700, respectively). The obtained clones maintained CD133 stem marker expression (Figure 9A). We then analyzed BMT9 dose-dependent effect on cell viability, by MTT assay, comparing the resistant clones to parental cells."}, "[4]": {"test": "Pharmacokinetics in plasma after intraperitoneal administration", "format": "in vivo", "conditions": "female C57BL/6 mice, i.p. 100 mg/kg", "protocol": "The Maximum Tolerated Dose (MTD) and Pharmacokinetics (PK) of BMT9 were determined after intraperitoneal administration to female C57BL/6 (~25 g) mice.\nC57BL/6 female mice (9-13 weeks in age) were administered intraperitoneally with a single dose of BMT9 at 35, 50, 75, 100 or 200 mg/Kg. Total of 3 animals were used for each independent serial sampling experiment. The compound was dissolved in an appropriate vehicle (Cremophor:EtOH:H20 1:1:8). Body weight, distress and survival were monitored 1, 2, 4 hours and 8 hours post-administration and every day during the whole observation period. The MTD was set on the dose below the first dose that caused severe loss of body weight (>20%) or death of one or more animals of a dose group seven days after treatment. The MTD of BMT9 was therefore set on about […]. The concentrations of BMT9 in plasma was determined at different times per duplicate using a previously validated analytical method. The compound was injected via i.p at 100 mg/kg. Total of 3 animals were used for each independent serial sampling experiment. Blood samples were collected at 5, 15, 30 min, 1, 4, 10, 24, and 48 hours from each animal via cardiac puncture; […] withdrawn at each time point. 25 microliters of blood sample were then used for quantitative bioanalysis by HPLC-MS/MS. The fundamental pharmacokinetic parameters were obtained from the non-compartmental analysis using PK Solutions 2.0.2."}, "G144 R700": {"tested_on": "G144 R700", "test": "MTT assay, TMZ-resistant clone G144 R700", "format": "cell-based", "conditions": "Homo sapiens, 72 hours", "description": "as §2"}},
  "data": [
    {"smiles": "C=C1C2CCC(C)(C3COc4c(C)c(OC)c5c(c4C3O)C(O)OC5=O)C1CCC2(C)C", "note": "(centres unmarked) [BMT9]", "values": [
      {"measurement": "expression levels of TAp73, ΔEx2p73 and ΔEx2/3p73", "setting": "[1]", "result": "reduced them all"},
      {"measurement": "cellular viability in long term culture", "setting": "[2]", "result": "affected"},
      {"measurement": "transcript levels originated from the P1-TP73 promoter (TAp73, ΔEx2p73 and ΔEx2/3p73)", "setting": "[3]", "result": "downregulated"},
      {"measurement": "percentage of cells in mitosis", "setting": "G144 cells", "result": 0.1, "unit": "%"},
      {"measurement": "P1-TP73-promoter activity (fluorescence normalized to DMSO exposed cells)", "setting": "P1-TP73 promoter", "result": "strongest and most reproducible repressive effect"},
      {"measurement": "pre-selection: modulatory effect of a 2-fold fluorescence increase or a 0.5-fold reduction", "setting": "P1-TP73 promoter; direction per compound not given", "result": "pre-selected"},
      {"measurement": "concentration as low as which still reduced viability", "setting": "G144; G144, 72 h after treatment", "result": 2.25, "unit": "µM"},
      {"measurement": "IC50", "setting": "G144", "result": 4.5, "unit": "µM"},
      {"measurement": "cellular viability in long term culture", "setting": "G144; GNSC (G144, CD133-positive), 1.125-4.5 µM", "result": "stronger effect against GNSC"},
      {"measurement": "IC50", "setting": "G144; Homo sapiens", "result": "< 4.5", "unit": "µM"},
      {"measurement": "highest concentration in the plasma", "setting": "[4]", "result": 7611, "unit": "ng/mL"},
      {"measurement": "time at which plasma concentration reached the control levels post-administration", "setting": "[4]", "result": 24, "unit": "h"},
      {"measurement": "time of highest concentration in the plasma after injection", "setting": "[4]", "result": 4, "unit": "h"},
      {"measurement": "IC50", "setting": "G144 R700", "result": "3.37 to 4.5", "unit": "µM"}
    ]}
  ]
}
